According to patent US8911798B2, “Multivitamin and mineral compositions for individuals having renal disease” (priority 2007, dated 2014):

Columns and labels:
[1] = daily doses higher than 1 mg/day; cited from earlier work
[2] = cited from earlier work
[3] = blood flow of 200-300 mL/min; cited from earlier work
[4] = 43 maintenance hemodialysis patients, low flux/low efficiency dialyzers; 200 mg post-dialysis 2-3 times per week (400-600 mg weekly) orally; cited from earlier work
[5] = up to 200 mg/day; cited from earlier work
[6] = zinc supplementation, dialysis patients; cited from earlier work
[7] = 400 μg/L in dialysate, 6 months; cited from earlier work
[8] = daily oral 25 mg elemental zinc, 6 months; from 81±8 mcg/dL; normal controls 111±10 μg/dL; p<0.005; cited from earlier work
[9] = in vivo; cited from earlier work
[10] = Daily vitamin K over several years in the general population; format: in vivo, human; settings: 1 mg dose each day over several years
Description: The inventor has discovered that the 10 mcg dose of vitamin K that is provided in conventional multivitamin preparations is too low. […] A composition of their invention comprises vitamin K in doses that are appropriate for subjects with renal disease and provides 25 to 1000 mcg of vitamin K, and a preferred embodiment of a composition of the invention provides 50 mcg of vitamin K.

[11] = 15 days of treatment with 300 mg/day; hemodialysis patients; cited from earlier work
[12] = single oral dose of 1200 IU; cited from earlier work
[13] = cited from earlier work; remark: listed apart in the source
[14] = Cholecalciferol dosing, calciuria and hypercalcemia in renal patients; format: in vivo, human
Description: The inventor has discovered that these therapeutic approaches are obsolete today because of the risk of prolonged hypercalcemia resulting from the long half-life of 25-(OH)-D3 in renal patients. […] Likewise, the inventor has discovered that repletion of vitamin D to achieve a plasma 25-(OH)-D concentration in the 80th percentile or higher of normal clinical values prevents renal osteodystrophy, Looser zones, and sub-periosteal resorption, despite the persistence of hypocalcemia, hyperphosphatemia and metabolic acidosis, or the use of calcium-aluminum free phosphate binders such as sevelamer salts. Therefore, a composition of the invention comprises 375 to 425 IU of vitamin D and a preferred embodiment of a composition of the invention provides 400 IU of vitamin D.

Compound: Nc1nc2ncc(CNc3ccc(C(=O)N[C@@H](CCC(=O)O)C(=O)O)cc3)nc2c(=O)[nH]1 [Folic acid]
- renal patients in whom plasma homocysteine levels are lowered [1]: up to 30%

Compound: Fe(III) hydroxide sucrose complex
- hemodialysis patients with bleomycin-detectable free iron in the circulation ([2]; 100 mg intravenously): 8 of the 10
- plasma total peroxide and malondialdehyde concentrations ([2]; within ten minutes following infusion of 100 mg): rise in plasma total peroxide and malondialdehyde concentrations

Compound: O=C1O[C@H]([C@@H](O)CO)C(O)=C1O [vitamin C, ascorbic acid]
- clearance of vitamin C (ascorbate) during hemodialysis [3]: about 100 mL/min
- patients with decreased plasma vitamin C levels / serum levels not maintained despite supplement [4]: 27%
- bioavailability [5]: ~100%

Compound: [Zn] [zinc]
- patients with plasma testosterone levels increased into the normal range [6]: 50%
- intracellular content of ATP in lymphocytes [7]: increased intracellular content of ATP in lymphocytes
- serum zinc level [7]: significant increase in serum zinc level
- plasma Zn levels after treatment [8]: 110 ± 14 µg/dL
- plasma level at which zinc toxicity is seen [9]: around 700 mcg/dL

Compound: vitamin K
- untoward effects [10]: no untoward effects

Compound: vitamin E
- platelet vitamin E levels [11]: increased to the normal range
- oxidative stress induced by intravenous iron [12]: effective in attenuating the oxidative stress

Compound: [Se] [selenium]
- APACHE III score versus untreated group ([13]; SIRS patients): significantly lower
- time to normalization of serum selenium levels and GSH-Px activity ([13]; Se treated SIRS patients): ≤ 3 days
- overall mortality ([13]; Se+ group, 52% in the Se− group): 33.5%

Compound: C=C1CC[C@H](O)C/C1=C/C=C1\CCC[C@]2(C)[C@@H]([C@H](C)CCCC(C)C)CC[C@@H]12 [cholecalciferol]
- calciuria and hypercalcemia ([14]; dose of 800 IU or 20 mcg, pre-dialysis patients): does not cause an increase in calciuria in pre-dialysis patients nor hypercalcemia
- calciuria and hypercalcemia ([14]; doses in excess of 2400 IU or 60 mcg/day): these complications are seen
